In assay [1] the test system is H1 human embryonic stem cells. In words: Step-wise differentiation, FACS for CXCR4 after step 1 (Example 16). It counts as cell-based. The note with it: 100 ng/ml GDF-8 with compound on first day, compared to activin A and Wnt3a. On the procedure:
The assay was initiated by aspirating the culture medium from each well and adding back an aliquot (0.5 ml) of test medium. Test conditions for the first step of differentiation were conducted over a three-day period, feeding daily by aspirating and replacing the medium from each well with fresh test medium. On the first day of assay, 100 ng/ml activin A (PeproTech; Cat #120-14) or 100 ng/ml GDF-8 (R&D Systems, Cat #788-G8) was added to respective assay wells where each growth factor was diluted into RPMI-1640 medium (Invitrogen; Cat #: 22400) with 2% Albumin Bovine Fraction V, Fatty Acid Free (FAF BSA) (Proliant Inc. Cat #: SKU 68700), and 20 ng/ml Wnt3a (R&D Systems; Cat #1324-WN/CF). On the second day of assay, 100 ng/ml activin A or 100 ng/ml GDF-8 was diluted into RPMI-1640 medium supplemented with 2% FAF BSA without Wnt3a. In some test samples using GDF-8, Wnt3a was replaced with a small molecule compound, added only on the first day of definitive endoderm differentiation. These small molecules included Compound 19 (2.5 μM in assay), Compound 202 (2.5 μM in assay), Compound 40 (2.5 μM in assay), or a commercially available GSK3 inhibitor BIO (0.5 μM in assay) (EMD Chemicals, Inc.; Cat #361550). At the conclusion of the first step of differentiation, cells from some wells were harvested for flow cytometry analysis to evaluate levels of CXCR4, a marker of definitive endoderm formation. Additional wells were harvested for RT-PCR analysis to measure other markers of differentiation.
Cells for FACS analysis were blocked in a 1:5 solution of 0.5% human gamma-globulin (Sigma; Cat#G-4386) in PBS (Invitrogen; Cat #14040-133): BD FACS staining buffer—BSA (BD; Cat #554657) for 15 minutes at 4° C. Cells were then stained with antibodies for CD9 PE (BD; Cat #555372), CD99 PE (Caltag; #MHCD9904) and CXCR4 APC(R&D Systems; Cat#FAB 173A) for 30 minutes at 4° C. After a series of washes in BD FACS staining buffer, the cells were stained for viability with 7-AAD (BD; Cat #559925) and run on a BD FACSArray. […]

In assay [2] the test system is human embryonic stem cells. In words: Dose response of activin A and GDF-8, SOX17 intensity (Example 11, Table 11). It counts as cell-based. The note with it: Wnt3a day 1, three days. On the procedure:
Stock cultures of human embryonic stem cells (1-11 human embryonic stem cell line) were maintained in an undifferentiated, pluripotent state on reduced growth factor […]-coated dishes in MEF conditioned medium with passage on average every four days. Passage was performed by exposing cell cultures to a solution of 1 mg/ml dispase (Invitrogen, Cat #: 17105-041) for 5 to 7 minutes at 37° C. followed by rinsing the monolayer with MEF conditioned culture medium and gentle scraping to recover cell clusters. Clusters were centrifuged at low speed to collect a cell pellet and remove residual dispase. Cell clusters were split at a 1:3 or 1:4 ratio for routine maintenance culture or a 1:1 ratio for immediate assay. All human embryonic stem cell lines were maintained at passage numbers less than 50 and routinely evaluated for normal karyotypic phenotype and for absence of mycoplasma contamination.
Cell clusters used in the assay were evenly resuspended in MEF conditioned medium supplemented with 8 ng/ml bFGF and seeded onto reduced growth factor […]™-coated 96-well Packard VIEWPLATES (PerkinElmer; Cat #6005182) in volumes of 100 μl/well. MEF conditioned medium supplemented with 8 ng/ml bFGF was used for initial plating and expansion. Daily feeding was conducted by aspirating spent culture medium from each well and replacing with an equal volume of fresh medium. Plates were maintained at 37° C., 5% CO2 in a humidified box throughout the duration of assay.
The assay was initiated by aspirating the culture medium from each well and adding back an aliquot (100 μl) of test medium. Test conditions were performed in quadruplicate over a total three-day assay period, feeding on day 1 and day 2 by aspirating and replacing the medium from each well with fresh test medium. Two 12-channel polypropylene basins (Argos technologies, Inc, Cat #: B3135) were used to make the test media containing different concentrations of Activin A (PeproTech; Cat #120-14) or GDF-8 (R&D Systems, Cat #788-G8). Channels numbered 2 through 12 of each basin contained 1 ml assay medium composed of RPMI-1640 medium (Invitrogen; Cat #: 22400) supplemented with 2% Albumin Bovine Fraction V, Fatty Acid Free (FAF BSA) (MP Biomedicals, Inc; Cat #152401) and 8 ng/ml bFGF (PeproTech Inc.; Cat #: 100-18B), and with 20 ng/ml Wnt3a (R&D Systems; Cat #1324-WN/CF) added on day 1, omitted on day 2 and 3. Channel number 1 of each basin contained 1600 ng/ml Activin A or 1600 ng/ml GDF-8, diluted into the same assay medium. One ml of medium was transferred from channel number 1 to channel number 2 and mixed well. A fresh pipette tip was used to transfer one ml of medium from channel number 2 to channel number 3, followed by thorough mixing. The same procedure was repeated in sequence through channel number 11 for each respective basin. Channel number 12 of each basin contained medium without Activin A or GDF-8. By doing this, a series of two-fold test dilutions was created, containing Activin A or GDF-8 at concentrations ranging from 1.6 ng/ml to 1600 ng/ml, for addition to the respective assay wells.
At the conclusion of three days of culture, assay plates were washed once with PBS (Invitrogen; Cat #14190), fixed with 4% paraformaldehyde (Alexis Biochemical; Cat #ALX-350-011) at room temperature for 20 minutes, then washed three times with PBS and permeabilized with 0.5% Triton X-100 (Sigma; Cat #T8760-2) for 20 minutes at room temperature. Cells were washed again three times with PBS and blocked with 4% chicken serum (Invitrogen; Cat #16110082) in PBS for 30 minutes at room temperature. Primary antibody (goat anti-human SOX17; R&D Systems; Cat #AF1924) was diluted 1:100 in 4% chicken serum and added to each well for two hours at room temperature. After washing three times with PBS, Alexa Fluor 488 conjugated secondary antibody (chicken anti-goat IgG; Invitrogen; Cat #A21467) diluted 1:200 in PBS was added to each well. […]

From patent US9593305B2, “Differentiation of pluripotent stem cells” (Janssen Biotech, Inc., priority 2008, dated 2017) come the findings set out here.

For the compound `CN1CCC(=O)NCCCc2cncc(c2)-c2ncnc(n2)Nc2cccc(c2)C1` [Compound 19, 14-Methyl-3,5,7,14,18,24,28-heptaazatetracyclo[20.3.1.1˜2,6˜0.1˜8,12˜]octacosa-1(26), 2(28), 3,5,8(27), 9,11,22,24-nonaen-17-one], the “percentage of CXCR4 positive cells after step 1” value in assay [1] is “equivalent or slightly higher percentage of CXCR4 positive cells”.

In the case of `C=CCN1CC(=O)NCCCc2cncc(c2)-c2ncnc(n2)Nc2cccc(c2)C1` [Compound 40, 14-Prop-2-en-1-yl-3,5,7,14,17,23,27-heptaazatetracyclo[19.3.1.1˜2.6˜0.1˜8,12˜]heptacosa-1(25), 2(27), 3,5,8(26), 9,11,21,23-nonaen-16-one], in assay [1], the “percentage of CXCR4 positive cells after step 1” value is given as “equivalent or slightly higher percentage of CXCR4 positive cells”.

In the case of “Activin A: recombinant human activin A (PeproTech), TGF-beta family member”, the “Normalized SOX17 Intensity, Average” value in assay [2] (1.56 ng/ml growth factor) is 0.10%; in assay [2] (3.13 ng/ml growth factor), 3.00%; in assay [2] (6.25 ng/ml growth factor), 18.40%; in assay [2] (12.50 ng/ml growth factor) it was 50.90%; in assay [2] (25 ng/ml growth factor) it was 73.10%; in assay [2] (50 ng/ml growth factor), 85.20%. The “Normalized SOX17 Intensity, Average” value was found to be 90.70% in assay [2] (100 ng/ml growth factor); 100.00% in assay [2] (200 ng/ml growth factor); 100.00% in assay [2] (400 ng/ml growth factor); 100.00% in assay [2] (800 ng/ml growth factor); 100.00% in assay [2] (1600 ng/ml growth factor). The “EC50 (SOX17 intensity, GraphPad Prism)” value in assay [2] was determined as 0.0139 µg/mL.

Regarding “GDF-8: growth factor GDF-8, also known as myostatin, member of the TGF-β family”, the “Normalized SOX17 Intensity, Average” value in assay [2] (1.56 ng/ml growth factor) is on record as 0.00%; in assay [2] (3.13 ng/ml growth factor), 0.10%; in assay [2] (6.25 ng/ml growth factor) it was 0.70%; in assay [2] (12.50 ng/ml growth factor) it was 0.90%; in assay [2] (25 ng/ml growth factor), 5.10%; in assay [2] (50 ng/ml growth factor) it was 17.60%. For the same compound, the “Normalized SOX17 Intensity, Average” value worked out at 32.70% in assay [2] (100 ng/ml growth factor); 51.30% in assay [2] (200 ng/ml growth factor); 72.20% in assay [2] (400 ng/ml growth factor); 84.90% in assay [2] (800 ng/ml growth factor); 100.00% in assay [2] (1600 ng/ml growth factor). Further, the “EC50 (SOX17 intensity, GraphPad Prism)” value in assay [2] came to 0.1848 µg/mL.
